This passage reports EC50 results from ChEMBL document CHEMBL1641554, “Synthesis and SAR study of diphenylbutylpiperidines as cell autophagy inducers” (Bioorg Med Chem Lett, 2011).

Some results are limits rather than exact numbers.

The test has as its system H4. As to the kind of experiment: Induction of autophagy in human H4 cells expressing LC3 using DAPI staining after 4 hrs by fluorescence microscopic analysis. As to conditions: H4, 4 h. In kind it is functional, cell-based.

The molecule `N#CC(CCCN1CCC2(CC1)C(=O)NCN2c1ccccc1)(c1ccccc1)c1ccccc1` registered a 50% effective concentration (EC50) of 14.8 µM.
The figure for `O=C1NCN(c2ccccc2)C12CCN(CCCN(c1ccccc1)c1ccccc1)CC2` is 24.9 µM.
Molecule `O=C1NCN(c2ccccc2)C12CCN(CCC=C(c1ccc(F)cc1)c1ccc(F)cc1)CC2` had a concentration for a half-maximal effect (EC50) of 6.2 µM.
In turn, `O=C(CCC(c1ccc(F)cc1)c1ccc(F)cc1)N1CCC2(CC1)C(=O)NCN2c1ccccc1` came in with a 50% effective concentration (EC50) greater than 50 µM.
In turn, `O=C1NCN(c2ccccc2)C12CCN(CCCC(O)c1ccc(F)cc1)CC2` (stereo unspecified) came in with an EC50 greater than 50 µM.
For `O=C1NCN(c2ccccc2)C12CCN(CC/C=C\c1ccc(F)cc1)CC2`, the EC50 is greater than 50 µM.
`O=C1NCN(c2ccccc2)C12CCN(CCCCC(c1ccc(F)cc1)c1ccc(F)cc1)CC2` showed a concentration for a half-maximal effect (EC50) of 4.7 µM. This lies in the single-digit micromolar range.
As to `O=C1NCN(c2ccccc2)C12CCN(CCC(c1ccc(F)cc1)c1ccc(F)cc1)CC2`, the EC50 stood at 2.1 µM.
The figure for `O=C1NCN(c2ccccc2)C12CCN(CCCC(c1ccccc1)c1ccccc1)CC2` is 34.6 µM.
Consider `O=C1NCN(c2ccccc2)C12CCN(CCCC(c1ccc(Cl)cc1)c1ccc(Cl)cc1)CC2`, for which a half-maximal response (EC50) required 4.2 µM. This EC50 lies about 8.2-fold lower than the previous one.
The figure for `O=C1NCN(c2ccccc2)C12CCN(CCCC(c1ccc(C(F)(F)F)cc1)c1ccc(C(F)(F)F)cc1)CC2` is 3.7 µM; for `Cc1ccc(C(CCCN2CCC3(CC2)C(=O)NCN3c2ccccc2)c2ccc(C)cc2)cc1` it is 3.1 µM.
With `COc1ccc(C(CCCN2CCC3(CC2)C(=O)NCN3c2ccccc2)c2ccc(OC)cc2)cc1`, a half-maximal effect (EC50) was put at 4.6 µM. The EC50 values of the last two molecules are within 1.5-fold of each other.
The molecule `OC1(c2ccc(Cl)c(C(F)(F)F)c2)CCN(CCCC(c2ccc(OC(F)(F)F)cc2)c2ccc(OC(F)(F)F)cc2)CC1` registered a concentration giving a half-maximal response (EC50) of 0.97 µM. Compared with the last molecule, the EC50 is about 4.7-fold lower.
In turn, `OC1(c2ccc(Cl)c(C(F)(F)F)c2)CCN(CCCC(c2cccc(F)c2)c2cccc(F)c2)CC1` displayed a 50% effective concentration (EC50) of 2.2 µM. This EC50 lies about 2.3-fold higher than the previous one.
The figure for `OC1(c2ccc(Cl)c(C(F)(F)F)c2)CCN(CCCC(c2cccc(C(F)(F)F)c2)c2cccc(C(F)(F)F)c2)CC1` is 0.65 µM; for `Cc1cccc(C(CCCN2CCC(O)(c3ccc(Cl)c(C(F)(F)F)c3)CC2)c2cccc(C)c2)c1` it is 0.29 µM.
Regarding `O=C1NCN(c2ccccc2)C12CCN(C1c3ccccc3Sc3ccccc31)CC2`, the EC50 is greater than 50 µM.
In the case of `OC1(c2ccc(C(F)(F)F)c(Cl)c2)CCN(C2c3ccccc3-c3ccccc32)CC1` it was 2.6 µM.
In turn, `OC1(c2ccc(C(F)(F)F)c(Cl)c2)CCN(C2c3ccccc3Sc3ccccc32)CC1` yielded a concentration for a half-maximal effect (EC50) of 14.4 µM.
In the case of `OC1(c2ccc(C(F)(F)F)c(Cl)c2)CCN(C2c3ccccc3CCc3ccccc32)CC1` it was 2.6 µM.
`CN1CCN(CCCC(c2ccc(F)cc2)c2ccc(F)cc2)CC1` showed an EC50 greater than 50 µM.
For the molecule `OCCN1CCN(CCCC(c2ccc(F)cc2)c2ccc(F)cc2)CC1`, the 50% effective concentration (EC50) was greater than 50 µM.
Consider `Fc1ccc(C(CCCN2CCN(c3ccc(Cl)cc3)CC2)c2ccc(F)cc2)cc1`, for which the EC50 was greater than 50 µM.
`Fc1ccc(C(CCCN2CCOCC2)c2ccc(F)cc2)cc1` gave an EC50 greater than 50 µM.
The figure for `Cc1ccc(C2=CCN(CCCC(c3ccc(F)cc3)c3ccc(F)cc3)CC2)cc1` is greater than 50 µM; for `Cc1ccc(C2CCN(CCCC(c3ccc(F)cc3)c3ccc(F)cc3)CC2)cc1` it is greater than 50 µM; for `Cc1ccc(C2(O)CCN(CCCC(c3ccc(F)cc3)c3ccc(F)cc3)CC2)cc1` it is 6.4 µM.
`CC(=O)OC1(c2ccc(C)cc2)CCN(CCCC(c2ccc(F)cc2)c2ccc(F)cc2)CC1`: the EC50 came to 4.4 µM.
Regarding `CC(=O)NC1(c2ccc(C)cc2)CCN(CCCC(c2ccc(F)cc2)c2ccc(F)cc2)CC1`, a half-maximal effect (EC50) was put at 2.2 µM.
The figure for `N#CC1(c2ccccc2)CCN(CCCC(c2ccc(F)cc2)c2ccc(F)cc2)CC1` is 10.5 µM; for `OC1(c2ccc(Cl)c(C(F)(F)F)c2)CCN(CCC=C(c2ccc(F)cc2)c2ccc(F)cc2)CC1` it is 4.3 µM; for `O=C(CCC(c1ccc(F)cc1)c1ccc(F)cc1)N1CCC(O)(c2ccc(Cl)c(C(F)(F)F)c2)CC1` it is greater than 50 µM.
On to `OC1(c2ccc(Cl)c(C(F)(F)F)c2)CCN(CCCCC(c2ccc(F)cc2)c2ccc(F)cc2)CC1`, for which it took 2.7 µM to reach a half-maximal effect (EC50).
In the case of `OC1(c2ccc(Cl)c(C(F)(F)F)c2)CCN(CCC(c2ccc(F)cc2)c2ccc(F)cc2)CC1` it was 4.5 µM; in that of `OC1(c2ccc(Cl)c(C(F)(F)F)c2)CCN(CCCC(c2ccccc2)c2ccccc2)CC1`, 5.1 µM.
`OC1(c2ccc(Cl)c(C(F)(F)F)c2)CCN(CCCC(c2ccc(Cl)cc2)c2ccc(Cl)cc2)CC1`: the concentration giving a half-maximal response (EC50) was 2.4 µM.
For `OC1(c2ccc(Cl)c(C(F)(F)F)c2)CCN(CCCC(c2ccc(C(F)(F)F)cc2)c2ccc(C(F)(F)F)cc2)CC1`, the half-maximal effective concentration (EC50) amounted to 0.28 µM. Compared with the last molecule, the EC50 is about 8.6-fold lower.
In the case of `Cc1ccc(C(CCCN2CCC(O)(c3ccc(Cl)c(C(F)(F)F)c3)CC2)c2ccc(C)cc2)cc1` it was 0.29 µM; in that of `COc1ccc(C(CCCN2CCC(O)(c3ccc(Cl)c(C(F)(F)F)c3)CC2)c2ccc(OC)cc2)cc1`, 1.2 µM; in that of `O=C1NCN(c2ccccc2)C12CCN(C1c3ccccc3-c3ccccc31)CC2`, 7.9 µM.
Turning to `O=C1NCN(c2ccccc2)C12CCN(C1c3ccccc3CCc3ccccc31)CC2`, the midpoint of the response, the EC50, lay at 5.1 µM.
In the case of `N#CC(CCCN1CCC(O)(c2ccc(Cl)c(C(F)(F)F)c2)CC1)(c1ccccc1)c1ccccc1` it was 3.2 µM; in that of `O=C1NCN(c2ccccc2)C12CCN(CCCCc1ccc(F)cc1)CC2`, greater than 50 µM; in that of `O=C1NCN(c2ccccc2)C12CCN(CCCC(c1ccc(F)cc1)c1ccc(F)cc1)CC2` [FLUSPIRILENE], 2.4 µM.
The figure for `OC1(c2ccc(Cl)c(C(F)(F)F)c2)CCN(CCCC(c2ccc(F)cc2)c2ccc(F)cc2)CC1` [PENFLURIDOL] is 3.2 µM.

For orientation: EC50 means the concentration needed to bring the measured effect to its halfway point.
